Structures can show the parent of a compound that is named as a salt.

One data set concerns back skin of minipigs. Nature of the data set: In vivo skin fluorescence study in minipigs (FluoDerm). The conditions noted are these: 15% cream in Unguentum Merck, 0.5 g per site, 1.5, 5 and 12 hours after application, FIG. 1. As to the method:
Compound 1c (carboxymethyl 5-amino-4-oxopentanoate hydrobromide, prepared according to Example 1c) was formulated as a cream in Unguentum Merck (15%, 150 mg/g; 0.56 mmol).
The cream was administered to the back skin of minipigs. Prior to application of the cream, the surrounding skin was cleaned with sterile water and gauze, if necessary. 0.5 g cream was applied to each test site (50 mm in diameter) resulting in a homogenous cream layer and then covered with a dressing (Tegaderm®). The gauze Vet-Flex® was used to keep the dressing in place.
Skin fluorescence at 630 nm was assessed prior to cream application and at 1.5, 5 and 12 hours after cream application using the FluoDerm instrument (DiaMedico ApS, Denmark) according to the manufacturers instructions. The FluoDerm instrument is a hand-held device for objective real-time in vivo measuring of average fluorescence over a circular field with diameter 40 mm. Measurements were electronically corrected for the actual ambient light.

The subject of data set [1] is Salmonella typhimurium, TA98 and TA100. In words: Ames test (mutagenic and photomutagenic potential). The conditions noted are these: absence and presence of S-9, absence and presence of visible light. The data set is classed as cell-based. An excerpt:
The Ames test (see B. N. Ames et al, Methods for detecting carcinogens and mutagens with the Salmonella/mammalian-microsome mutagenicity test. Mutation Research 31, 347-364, 1975) is a standard test method approved by the regulatory authorities to detect an ability of a test chemical compound to induce mutation in certain bacterial strains. If a test chemical compound induces such mutations, it cannot be used in a pharmaceutical compound for use in humans.
The objective of this study was to evaluate the mutagenic potential and photomutagenic potential of compound 1c, carboxymethyl 5-amino-4-oxopentanoate hydrobromide (prepared according to Example 1c) by examining its ability to revert two histidine-requiring strains of Salmonella typhimurium, TA98 and TA100, in the absence and presence of a rat liver metabolising system (S-9) and also in the absence and presence of visible light. The latter was assessed since compound 1c is taken up by the bacteria cells and converted into a photosensitiser, which, upon illumination of said cells, might induce mutagenic products.
(In general: In the Ames test, an excess of revertant colonies over the control signals mutagenicity.)

Data set [2] concerns sebaceous glands and epidermis of minipig skin. Nature of the data set: Minipig skin biopsies, fluorescence microscopy. The data set is classed as in vivo, minipigs. The conditions noted are these: minipig skin biopsy sections; 15% cream. As for the experimental part: The cream was administered as described above. At t=0 (i.e. prior to administration of the cream), 1.5, 5 and 12 hours, biopsy samples were taken using a 10 mm biopsy punch (AcuPunch 10 mm, Acuderm, USA). The samples were taken and handled in a minimally illuminated room. Each sample was trimmed free of any subcutaneous fatty tissue and thereafter cut in half. Each sample was then snap frozen in liquid nitrogen, in an aluminium foil bag or similar, and transferred to a −80° C. freezer.
The biopsy samples were sectioned at 10 μm and again care was taken to minimize the surrounding light. When sebaceous glands and epidermis could be identified, a series of 3 consecutive sections was prepared from each sample. The sections were examined within 15 minutes in a Leica DMRXE microscope equipped for both ordinary light microscopy and fluorescence microscopy. Epidermis and sebaceous glands were localized using conventional light microscopy. This was carried out within 5 seconds and then the light source was changed to a mercury lamp/fluorescence with filter set; excitation filter 390-447 nm, beam splitter 455 nm and an emission filter >600 nm. The sections were immediately photographed. Without moving the specimen the light source was changed back to conventional light microscopy and the sections were photographed in exactly the same position as for the fluorescence microscopy. As well as the epidermis and sebaceous glands, the dermis was analysed and if fluorescence was found also photographed. To further investigate localisation of all analyzed structures, the sections were stained with hematoxylin/eosin.
Image analysis was performed using the software program, Image J (version Fiji-win32.exe). With this program, average fluorescence intensity per pixel was measured from the saved images.

The test system of data set [3] is S. aureus strain DSM 20231 (ATCC 12600). Nature of the data set: Dark toxicity in bacteria. Type of data set: cell-based, Staphylococcus aureus. The conditions noted are these: 0.001, 0.1, 1 and 10 mM, plate not illuminated. As to the method: S. aureus strain DSM 20231 (ATCC 12600). The bacterial strain was grown for 24 hours on heart infusion agar (Difco) at 35-37° C. prior to carrying out the experiment and re-suspended in 20 mM PIPES, pH 7.2-7.4 at a concentration corresponding to a McFarland 0.5 standard (approximately 1-5×10^8 CFU/mL). In order to ensure viable cell cultures and to check the inoculum size and purity, bacterial stocks were made immediately prior to experimentation and the CFU/mL determined in a standard colony assay.
“Dark toxicity”, i.e. the toxic effect of the compounds in the absence of light (and therefore unrelated to PDT effects), can include bacteria cell death and therefore can interfere with the accurate measurement of the PDT effect, which also results in bacterial cell death. Dark toxicity can be measured by determining the toxicity of each compound under the same experimental conditions, but in the absence of light, thereby avoiding any PDT effect. The use of the compounds of the invention under conditions that produce low dark toxicity is advantageous because dark toxicity effects could also include harming or killing non-target cells and interfering with the PDT treatment itself. […]
Dark toxicity was determined as described in the paragraph “PDT-treatment” below, except that the plate was not illuminated. […]

The test system of data set [4] is UV-damaged mouse skin versus healthy mouse skin. Nature of the data set: In vivo skin fluorescence in healthy nude mice and nude mice with UV-damaged skin. The note with it: nude mice. As for the experimental part: An experiment was carried out to assess the potential for compound 6 to show selective accumulation in UV-damaged skin. For the assessment, skin fluorescence after application of the compound was measured in vivo in healthy mouse skin and in UV-damaged mouse skin. A nude mice model with UV-damaged skin (actinic damage) was established as described by K. Togsverd-Bo et al., Exp. Dermatol. 2012, 21, 260-264.
Equimolar amounts of compound 2 (1-(isopropyl carboxy)ethyl 5-amino-4-oxopentanoate hydrochloride prepared according to Example 2) and compound 5 (3-carboxypropyl 5 amino-4-oxopentanoate hydrochloride prepared according to Example 5) were formulated as a cream in Unguentum Merck: compound 2: 16%, 160 mg/g and compound 5: 14%, 140 mg/g, respectively.
One group of healthy nude mice (10 mice, control group) and one group of nude mice with UV-damaged skin (10 mice) were included in the experiment. About 125 μl of cream formulation was applied onto the back of each mouse. Prior to cream application, the dorsal skin of each mouse was tape-stripped five times to enhance penetration of the compound: adhesive film (Scotch tape, 3M) was pressed onto the skin of the application area, the tape strip was removed with one quick movement and a new tape strip was used. The mice were kept in the dark for 3 hours prior to skin fluorescence measurement to avoid photobleaching. Skin fluorescence was assessed as described in Example 17 and the mean amount of skin fluorescence for each group of mice was calculated.
The ratio of skin fluorescence [a.u] in UV-damaged mouse skin to skin fluorescence [a.u.] in healthy mouse skin was determined.

Data set [5] has as its system skin of healthy nude mice. Nature of the data set: In vivo skin fluorescence study in healthy nude mice. The conditions noted are these: cream in Unguentum Merck, equimolar (16-19%), about 100 μl on back, 6 hours in the dark, excitation 365 and 405 nm, mean of 5 mice. As for the experimental part:
A study was carried out to assess the potential of the compounds of the invention as precursors for photosensitisers for skin application. As such, the compounds of the invention need to be able to penetrate the skin, to be taken up by the cells in the skin and to be converted to photosensitisers. The result of this process can be visualized by exposing the skin to light which excites the photosensitiser molecules and to determine the amount of energy which is released in the form of fluorescence when the excited photosensitiser molecules relax to an energetically lower state.
Compounds 2, 4 and 7 above were formulated as creams in Unguentum Merck. The compounds were tested in equimolar amounts:
3 groups of mice (5 mice/group, each mouse of one group receiving the same cream formulation) were included in the experiment. About 100 μl of cream formulation was applied onto the back of one mouse. The mice were kept in the dark for 6 hours prior to skin fluorescence measurement to avoid photobleaching. For assessment of skin fluorescence, a fluorescence camera (Medeikonos PDD/PDT, Medeikonos AB, Gothenburg, Sweden) was used and images of the back of each mouse were taken. Excitation was carried out at wavelengths of 365 and 405 nm and 2 s illumination time. Each image was calibrated to a fluorescence standard (Uranyl Standard, J&M, Analytische Mess- and Regeltechnik GmbH, Hamburg, Germany) and adjusted for background fluorescence. The mean amount of skin fluorescence in each image was calculated by means of image analyzer-software (MatLab 7.2.0.232, Math-Works, Natick, Mass., USA) and the mean amount of skin fluorescence for each group of mice (5 mice/compound) was calculated.

Data set [6] has as its system Rat bladder cells (AY-27). Nature of the data set: Cytotoxicity in rat bladder cells (MTT test). The data set is classed as cell-based. The note with it: AY-27 cells; for Cytotoxicity: 2 hours, MTT test. As to the method: All experiments were performed in 4-5 replicates under subdued light. For concentrations of compounds 1 mM, the cytotoxicity was assessed with MTT test. Exponentially growing cells were incubated with freshly prepared solution or medium as described above for 2 hours in 96-well plates. After the incubation, the solutions or the medium was discarded and the cells were washed twice with PBS. Then 50 μl of MTT (2.5 mg·ml^−1) was added to 150 μl of RPMI serum-free medium per well and incubated for 3 hours. Absorbance was measured by dissolving formazan crystals with 50 μl of DMSO. The absorbance was normalized to that of control cells.
(In general: Formazan colour is commonly taken as a measure of viable cells.)

For data set [7], the system named is Rat bladder cells (AY-27). In words: PpIX measurements in rat bladder cells. Type of data set: cell-based. The note with it: AY-27 cells; for PpIX Mean ± SD: 2 hours incubation. As to the method:
Rat bladder cells (AY-27) were grown in the culture medium (RPMI 1640 supplemented with 9% fetal calf serum 1% L-glutamin (200 mM) and 1% penicillin (10 000 UI), streptomycin (10 000 μg·mL^−1). Exponentially growing cells (AY-27) were incubated for 2 hours with freshly prepared solutions of 0.8 mM HAL (which is a tenth of the concentration which is used for bladder cancer […]). Control cells received serum-free medium without any test or reference compounds. After the incubation, the solutions or the medium was discarded and the cells were rinsed 2 times with ice-cooled PBS. PpIX was extracted from cells using an ice-cold lysis extraction mixture, consisting of ethanol/DMSO/acetic acid (80/20/1, v/v/v). The cell lysate was centrifuged (400 g, 10 min, 2° C.), the pellet was grinded and the suspension was sonicated for 15 min before being centrifuged. The fluorescence signal of PpIX was measured with a Perkin-Elmer LS 55 spectrometer (Perkin-Elmer, Beaconsfield, UK) and expressed as a function of the protein content. The fluorescence intensity at 635 nm in each sample was reported on a calibration curve established with PpIX (Sigma-Aldrich, France) diluted in extraction mixture as described above. The PpIX concentration was expressed relative to the protein content. Briefly, a lysis buffer mixture (1 mM EDTA, 1% Triton X-100 and 10 mM Tris-HCl; pH 7.4) was added to frozen cell dishes together with 500 mM PMSF (anti-protease) solution in DMSO. Lysates were kept on ice for 30 minutes and centrifuged at 4° C. for 20 minutes at 15 000 g. The protein content was then measured against a BSA calibration curve by a Biorad DC protein assay kit (Bio-Rad, France) based on a method developed by Lowry.

Take `NCC(=O)CCC(=O)OCC(=O)O` [Compound 1c, carboxymethyl 5-amino-4-oxopentanoate hydrobromide]: in the data set with back skin of minipigs, the “Skin fluorescence at 630 nm over time” value is recorded as “skin fluorescence increased with time”. The “Induction of mutation or photomutation” value in data set [1] was “did not induce mutation or photomutation”. Also, in data set [2], the “Selectivity for sebaceous glands” value is “shows a selectivity for sebaceous glands”, the “Time after cream application at which fluorescence was also seen in the epidermis” value was 5 h and the “Time after cream application at which fluorescence was seen in the sebaceous glands” value turned out to be 1.5 h. In addition, the Dark toxicity result in data set [3] is given as “No dark toxicity was observed”.

Take `CC(C)OC(=O)C(C)OC(=O)CCC(=O)CN` (stereo not drawn) [Compound 2, 1-(isopropylcarboxy)ethyl 5-amino-4-oxopentanoate hydrochloride]: the “Ratio of skin fluorescence in UV-damaged mouse skin to skin fluorescence in healthy mouse skin” value in data set [4] (equimolar creams (16% / 14%), about 125 μl, tape-stripped skin, 3 hours in the dark, 10 mice per group) is listed as 1.14. For the same compound, the “Selectivity for UV-damaged skin” value in data set [4] (equimolar creams, 3 hours) is on record as “some selectivity for UV-damaged skin”. Besides, the Skin fluorescence in data set [5] came to 31557 a.u.

In the case of `NCC(=O)CCC(=O)OCCC(=O)O` [Compound 4, 2-carboxyethyl 5-amino-4-oxopentanoate hydrobromide], the Skin fluorescence in data set [5] stood at 8473 a.u. Further, the Dark toxicity entry in data set [3] is “No dark toxicity was observed”. In addition, the figures for the Cytotoxicity in data set [6] (1 mM), in data set [6] (5 mM) and in data set [6] (15 mM) were 3 % of control, 14 % of control and 39 % of control, respectively. Moreover, the “Cytotoxicity at higher concentration” value in data set [6] (concentration higher than 5 mM) is “cytotoxicity was induced”. The “PpIX Mean ± SD” value is 45 ± 8 pmoles/mg protein in data set [7] (1 mM), 141 ± 24 pmoles/mg protein in data set [7] (5 mM) and 180 ± 94 pmoles/mg protein in data set [7] (15 mM). Besides, the “PpIX concentration compared to HAL (0.8 mM)” value in data set [7] (compound at 1 mM) is recorded as “significantly lower compared to HAL”; in data set [7] (compound at 5 mM) it was “About half of the PpIX concentration of HAL”.

On to `NCC(=O)CCC(=O)OCc1ccc(C(=O)O)cc1` [Compound 7, (4-carboxyphenyl)methyl 5-amino-4-oxopentanoate hydrobromide], for which, in data set [5], the Skin fluorescence was 2995 a.u.

These data come from patent US9249086B2, “Carboxylic acid ALA esters” (Photocure ASA, priority 2012, dated 2016).
